Converted amounts (≈) assume the structure as drawn. The source made the active and inactive calls. The rule behind the calls is not given here.
Assays:
[1] = test system: Candida albicans; experiment: Antibiofilm activity against FLC-resistant Candida albicans 0304103 assessed as reduction in fungal growth at 32 ug/mL and measured for 48 hrs by time-growth curve assay; type: functional, organism-based; conditions: dose 32.0 µg/ml
[2] = test system: Candida albicans; experiment: Downregulation of MDR1 expression in Candida albicans 0304103 at 32 ug/mL incubated for 24 hrs by RT q-PCR analysis; type: functional; conditions: dose 32.0 µg/ml
[3] = test system: Candida albicans; experiment: Synergetic antifungal activity against Candida albicans 0304103 assessed as microbial growth inhibition incubated for 24 hrs in the presence of (S)-N-Hydroxy-4-((2(1-methyl-6-phenyl-4H-benzor[f](1,2,4)-triazolo-[4,3-a][1,4]diazepin 4-yl)acetamido)methyl)benzamide by checkerboard microdilution method; type: functional
[4] = test system: Candida albicans; experiment: (§1) Synergetic antifungal activity against Candida albicans 9884 assessed as microbial growth inhibition incubated for 24 hrs in the presence of (S)-4-((2-(6-(4-Chlorophenyl)-1-methyl-7,8,9,10-tetrahydro-4H-benzo-(4,5)thieno[3,2-f][1,2,4]triazolo(4,3-a)(1,4)diazepin-4-yl)-acetamido)-methyl)-N-hydroxybenzamide by checkerboard microdilution method; type: functional
[5] = test system: Candida albicans; experiment: Synergetic antifungal activity against Candida albicans 0304103 assessed as microbial growth inhibition incubated for 24 hrs in the presence of (S)-N-Hydroxy-4-(2-(1-methyl-6-phenyl-4H-benzo[f](1,2,4)-triazolo-[4,3-a],[1,4]diazepin-4-yl)acetamido)benzamide by checkerboard microdilution method; type: functional
[6] = test system: Candida albicans; experiment: Antifungal activity against Candida albicans SC5314 assessed as fungal growth inhibition incubated for 24 hrs by broth dilution method; type: functional
[7] = test system: Cryptococcus neoformans; experiment: as §1, with “Cryptococcus neoformans 011405” for “Candida albicans 9884”; type: functional
[8] = test system: [Candida] auris; experiment: Antifungal activity against Candida auris 0029 assessed as microbial growth inhibition; type: functional; conditions: Candidozyma auris
[9] = test system: Candida albicans; experiment: Synergetic antifungal activity against Candida albicans 0304103 assessed as microbial growth inhibition incubated for 24 hrs in the presence of (S)-4-(2-(6-(4-Chloropheny1)-1-methy1-4H-benzo(f)(1,2,4)-triazolo(4,3-a)[1,4]diazepin-4-yl)acetamido)methyl)-N-hydroxybenzamide by checkerboard microdilution method; type: functional
[10] = test system: Candida albicans; experiment: Synergetic antifungal activity against Candida albicans 0304103 assessed as microbial growth inhibition incubated for 24 hrs in the presence of (S)-4-((2-(8-Chloro-6-(2-chloropheny1)-1-methyl-4H-benzo[f]-[1,2,4]-triazolo(4,3-a)(1,4]diazepin-4-yl)acetamido)methyl)-N-hydroxy-benzamide by checkerboard microdilution method; type: functional
[11] = test system: Candida albicans; experiment: Downregulation of ERG11 expression in Candida albicans 0304103 at 32 ug/mL incubated for 24 hrs by RT q-PCR analysis; type: functional; conditions: dose 32.0 µg/ml

## OC(Cn1cncn1)(Cn1cncn1)c1ccc(F)cc1F [FLUCONAZOLE]
[1]
  Activity: inactive
[2]
  Activity: inactive
[3]
  MIC80: 1 µg/mL
[4]
  MIC80: 0.25 µg/mL
[5]
  MIC80: 2 µg/mL
[6]
  MIC80: 0.5 µg/mL (≈ 1.63 µM)
[7]
  MIC80: 2 µg/mL
[8]
  MIC80: > 64 µg/mL
[9]
  MIC80: 2 µg/mL
[10]
  MIC80: 2 µg/mL
[11]
  Activity: inactive
